Measurements as given in US8586591B2, “Aminopyrazine derivative and medicine” (Nippon Shinyaku Co., Ltd., priority 2009, dated 2013).
Where a name gives a salt, the structure may show the parent alone.

Molecular target: T1, JAK3 tyrosine kinase (Homo sapiens, UniProt P52333)
T1 construct: purchased Carnabioscience Co
T1 sequence (P52333 1-1124): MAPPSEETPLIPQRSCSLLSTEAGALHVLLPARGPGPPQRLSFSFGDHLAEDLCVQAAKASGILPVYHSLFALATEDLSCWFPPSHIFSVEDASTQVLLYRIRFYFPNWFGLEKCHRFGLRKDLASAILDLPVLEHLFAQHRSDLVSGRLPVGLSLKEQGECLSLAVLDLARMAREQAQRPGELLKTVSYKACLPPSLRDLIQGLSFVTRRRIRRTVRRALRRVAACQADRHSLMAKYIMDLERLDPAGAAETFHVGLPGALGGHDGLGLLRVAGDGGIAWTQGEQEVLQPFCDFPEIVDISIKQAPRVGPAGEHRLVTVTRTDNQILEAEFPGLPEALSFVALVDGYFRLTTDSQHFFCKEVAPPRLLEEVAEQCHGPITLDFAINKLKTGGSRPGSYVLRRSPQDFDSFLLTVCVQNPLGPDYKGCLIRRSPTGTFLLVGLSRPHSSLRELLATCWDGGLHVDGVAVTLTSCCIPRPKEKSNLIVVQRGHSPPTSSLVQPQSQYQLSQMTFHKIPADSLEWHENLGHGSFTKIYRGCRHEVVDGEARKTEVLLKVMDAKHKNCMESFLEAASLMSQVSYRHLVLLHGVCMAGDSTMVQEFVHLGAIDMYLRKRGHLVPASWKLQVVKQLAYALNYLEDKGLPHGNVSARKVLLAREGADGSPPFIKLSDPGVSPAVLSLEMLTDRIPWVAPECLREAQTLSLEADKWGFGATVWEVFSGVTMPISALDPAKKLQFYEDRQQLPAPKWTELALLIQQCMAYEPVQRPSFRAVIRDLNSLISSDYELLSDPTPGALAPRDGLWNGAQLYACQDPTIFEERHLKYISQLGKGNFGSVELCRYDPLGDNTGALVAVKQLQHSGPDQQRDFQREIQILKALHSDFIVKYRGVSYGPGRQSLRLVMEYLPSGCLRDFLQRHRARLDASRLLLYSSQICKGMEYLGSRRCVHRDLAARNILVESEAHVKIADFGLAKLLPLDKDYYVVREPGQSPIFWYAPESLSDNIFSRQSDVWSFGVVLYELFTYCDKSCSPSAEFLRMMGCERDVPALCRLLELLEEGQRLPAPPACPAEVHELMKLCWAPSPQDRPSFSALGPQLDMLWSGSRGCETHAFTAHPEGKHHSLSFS
Assay: Test 1: inhibitory activity to JAK3 tyrosine kinase (ELISA)
Format: biochemical
Conditions: 25 μM ATP in substrate solution, 30° C. for 1 hour, n=2
Procedure: Test 1: Test for inhibitory activity to JAK2 and JAK3 tyrosine kinase 1. […] The test material was dissolved in dimethylsulfoxide (DMSO) to be 10 mM, and further diluted with DMSO to be 100-fold concentrations for measurement (1000, 300, 100, 30, 10, 3, 1, 0.3, 0.1, 0.03, 0.01 μM). In addition, solutions diluted with an assay buffer up to 20 times were used as solutions of the test material. As a negative control, a solution of DMSO diluted 20 times with an assay buffer was used. […] 2. Measurement of the Activities of JAK2 and JAK3 Tyrosine Kinases The activity was determined by ELISA. […] The absorbance was measured by means of a micro-plate reader (BIO-RAD; Model 3550) at 450 nm. 3. Analysis of the Results of the Measurement The measured absorbance was subjected to a non-linear regression analysis by means of a SAS system (SAS Institute Inc.), and the concentration (IC50) of the test material which inhibited 50% of the activity of each tyrosine kinase was estimated.

Row | Compound | IC50
1 | C[C@H](Nc1cc(N2CCS(=O)(=O)CC2)cc(Nc2cnccn2)n1)c1ccc(F)cc1 [Example 128, 4-{2-[(1S)-1-(4-Fluorophenyl)ethylamino]-6-(pyrazin-2-ylamino)pyridin-4-yl}-1λ^6,4-thiomorpholin-1,1-dione] | 46 nM
2 | C[C@H](Nc1cc(N2CCC(O)CC2)cc(Nc2cnccn2)n1)c1ccc(F)cc1 [Example 129, (S)-1-{2-[1-(4-Fluorophenyl)ethylamino]-6-(pyrazin-2-ylamino)pyridin-4-yl}piperidin-4-ol] | 380 nM
3 | C[C@H](Nc1cc(Nc2ncccn2)cc(Nc2cnccn2)n1)c1ccc(F)cc1 [Example 131, (S)—N^2-[1-(4-Fluorophenyl)ethyl]-N^6-(pyrazin-2-yl)-N^4-(pyrimidin-2-yl)pyridine-2,4,6-triamine] | 180 nM
4 | C[C@H](Nc1cc(Nc2ccccn2)cc(Nc2cnccn2)n1)c1ccc(F)cc1 [Example 132, (S)—N^2-[1-(4-Fluorophenyl)ethyl]-N^6-(pyrazin-2-yl)-N^4-(pyridin-2-yl)pyridine-2,4,6-triamine] | 350 nM
5 | Cc1cn(-c2cc(Nc3cnccn3)nc(N[C@@H](C)c3ccc(F)cc3)c2)cn1 [Example 136, (S)—N^2-[1-(4-Fluorophenyl)ethyl]-4-(4-methyl-1H-imidazol-1-yl)-N^6-(pyrazin-2-yl)pyridine-2,6-diamine dihydrochloride] | 170 nM
6 | C[C@H](Nc1cc(Nc2cnccn2)cc(Nc2cnccn2)n1)c1ccc(F)cc1 [Example 137, (S)—N^2-[1-(4-Fluorophenyl)ethyl]-N^4,N^6-di(pyrazin-2-yl)pyridine-2,4,6-triamine] | 160 nM
7 | C[C@H](Nc1cc(OCC2CC2)cc(Nc2cnccn2)n1)c1ccc(F)cc1 [Example 138, (S)-4-(Cyclopropylmethoxy)-N^2-[1-(4-fluorophenyl)ethyl]-N^6-(pyrazin-2-yl)pyridine-2,6-diamine] | 420 nM
8 | C[C@H](Nc1cc(CO)cc(Nc2cnccn2)n1)c1ccc(F)cc1 [Example 140, (S)-{2-[1-(4-Fluorophenyl)ethylamino]-6-(pyrazin-2-ylamino)pyridin-4-yl}methanol] | 61 nM
9 | C[C@H](Nc1cc(C(N)=O)cc(Nc2cnccn2)n1)c1ccc(F)cc1 [Example 145, (S)-2-[1-(4-Fluorophenyl)ethylamino]-6-(pyrazin-2-ylamino)isonicotinamide] | 36 nM
10 | C[C@H](Nc1cc(C(=O)N(C)C)cc(Nc2cnccn2)n1)c1ccc(F)cc1 [Example 149, (S)-2-[1-(4-Fluorophenyl)ethylamino]-N,N-dimethyl-6-(pyrazin-2-ylamino)isonicotinamide] | 690 nM
11 | C[C@H](Nc1cc(C(=O)NCCN(C)C)cc(Nc2cnccn2)n1)c1ccc(F)cc1 [Example 150, (S)—N-[2-(Dimethylamino)ethyl]-2-[1-(4-fluorophenyl)ethylamino]-6-(pyrazin-2-ylamino)isonicotinamide] | 150 nM
12 | CCNC(=O)c1cc(Nc2cnccn2)nc(N[C@@H](C)c2ccc(F)cc2)c1 [Example 152, (S)—N-Ethyl-2-[1-(4-fluorophenyl)ethylamino]-6-(pyrazin-2-ylamino) isonicotinamide] | 93 nM
13 | C[C@H](Nc1cc(C(=O)N2CCN(S(C)(=O)=O)CC2)cc(Nc2cnccn2)n1)c1ccc(F)cc1 [Example 153, (S)-{2-[1-(4-Fluorophenyl)ethylamino]-6-(pyrazin-2-ylamino)pyridin-4-yl}[4-(methanesulfonyl)piperazin-1-yl]methanone] | 300 nM
14 | CC(C)NC(=O)c1cc(Nc2cnccn2)nc(N[C@@H](C)c2ccc(F)cc2)c1 [Example 155, (S)-2-[1-(4-Fluorophenyl)ethylamino]-N-isopropyl-6-(pyrazin-2-ylamino)isonicotinamide] | 390 nM

Further compounds by falling IC50, results first:

Row | IC50 | Compound
15 | 2100 nM | C[C@H](Nc1nc(C#N)cc(Nc2cnccn2)n1)c1ccc(F)cc1 [Example 143, (S)-2-[1-(4-Fluorophenyl)ethylamino]-6-(pyrazin-2-ylamino)pyrimidine-4-carbonitrile]
16 | 1400 nM | C[C@H](Nc1nc(Nc2cnccn2)cc(-c2ncon2)n1)c1ccc(F)cc1 [Example 146, (S)—N^2-[1-(4-Fluorophenyl)ethyl]-6-(1,2,4-oxadiazol-3-yl)-N^4-(pyrazin-2-yl)pyrimidine-2,4-diamine hydrochloride]
17 | 920 nM | C[C@H](Nc1cc(-c2ncon2)cc(Nc2cnccn2)n1)c1ccc(F)cc1 [Example 147, (S)—N^2-[1-(4-Fluorophenyl)ethyl]-4-(1,2,4-oxadiazol-3-yl)-N^6-(pyrazin-2-yl)pyridine-2,6-diamine hydrochloride]
18 | 810 nM | COC(=O)c1ccc(Nc2cnccn2)nc1N[C@@H](C)c1ccc(F)cc1 [Example 148, Methyl (S)-2-[1-(4-fluorophenyl)ethylamino]-6-(pyrazin-2-ylamino)nicotinate]
19 | 620 nM | COC(=O)c1cc(Nc2cnccn2)nc(N[C@@H](C)c2ccc(F)cc2)c1 [Example 134, Methyl (S)-2-[1-(4-fluorophenyl)ethylamino]-6-(pyrazin-2-ylamino)isonicotinate]
20 | 570 nM | CC(=O)N1CCCN(c2cc(Nc3cnccn3)nc(N[C@@H](C)c3ccc(F)cc3)c2)CC1 [Example 130, (S)-1-(4-{2-[1-(4-fluorophenyl)ethylamino]-6-(pyrazin-2-ylamino)pyridin-4-yl}-1,4-diazepan-1-yl)ethanone]
21 | 490 nM | C[C@H](Nc1cc(C(=O)NC(C)(C)C)cc(Nc2cnccn2)n1)c1ccc(F)cc1 [Example 151, (S)—N-t-Butyl-2-[1-(4-fluorophenyl)ethylamino]-6-(pyrazin-2-ylamino)isonicotinamide]
22 | 440 nM | C[C@H](Nc1cc(C(=O)O)cc(Nc2cnccn2)n1)c1ccc(F)cc1 [Example 141, (S)-2-[1-(4-Fluorophenyl)ethylamino]-6-(pyrazin-2-ylamino)isonicotinic acid]
23 | 340 nM | C[C@H](Nc1cc(C(=O)N2CCCC2)cc(Nc2cnccn2)n1)c1ccc(F)cc1 [Example 154, (S)-{2-[1-(4-Fluorophenyl)ethylamino]-6-(pyrazin-2-ylamino)pyridin-4-yl}(pyrrolidin-1-yl)methanone]
24 | 320 nM | CNS(=O)(=O)c1ccc(-c2cc(Nc3cnccn3)nc(N[C@@H](C)c3ccc(F)cc3)n2)cc1 [Example 135, (S)-4-{2-[1-(4-Fluorophenyl)ethylamino]-6-(pyrazin-2-ylamino)pyrimidin-4-yl}-N-methylbenzenesulfonamide hydrochloride]
25 | 290 nM | C[C@@H](c1ccc(F)cc1)N(C)c1cc(-c2cnn(C)c2)cc(Nc2cnccn2)n1 [Example 139, (S)—N^2-[1-(4-Fluorophenyl)ethyl]-N^2-methyl-4-(1-methyl-1H-pyrazol-4-yl)-N^6-(pyrazin-2-yl)pyridine-2,6-diamine hydrochloride]
26 | 230 nM | C[C@H](Nc1cc(N2CCC3(CC2)OCCO3)cc(Nc2cnccn2)n1)c1ccc(F)cc1 [Example 133, N^2-[(S)-1-(4-Fluorophenyl)ethyl]-N^6-(pyrazin-2-yl)-4-(1,4-dioxa-8-azaspiro[4.5]decan-8-yl)pyridine-2,6-diamine]
27 | 210 nM | C[C@H](Nc1cc(C#N)cc(Nc2cnccn2)n1)c1ccc(F)cc1 [Example 144, (S)-2-[1-(4-Fluorophenyl)ethylamino]-6-(pyrazin-2-ylamino)isonicotinonitrile]
28 | 200 nM | COc1cc(Nc2cnccn2)nc(N[C@@H](C)c2ccc(F)cc2)c1 [Example 127, (S)—N^2-[1-(4-Fluorophenyl)ethyl]-4-methoxy-N^6-(pyrazin-2-yl)pyridine-2,6-diamine]
29 | 66 nM | COCCOc1cc(Nc2cnccn2)nc(N[C@@H](C)c2ccc(F)cc2)c1 [Example 142, (S)—N^2-[1-(4-Fluorophenyl)ethyl]-4-(2-methoxyethoxy)-N^6-(pyrazin-2-yl)pyridine-2,6-diamine hydrochloride]
